Reference: publication PMC5362899, “Structural insights into the nucleotide base specificity of P2X receptors” (Scientific Reports, 2017)

Target: T1, rat P2X4 rT186A mutant (Rattus norvegicus, UniProt P51577, T186A)
T1 construct: rat P2X4 (NP_113782.1; WT and mutants) were transcribed from pGEMHE plasmids; expressed in transfected cells; host or cells: Xenopus laevis oocytes injected with cRNA from pGEMHE
T1 sequence (P51577 1-388 T186A): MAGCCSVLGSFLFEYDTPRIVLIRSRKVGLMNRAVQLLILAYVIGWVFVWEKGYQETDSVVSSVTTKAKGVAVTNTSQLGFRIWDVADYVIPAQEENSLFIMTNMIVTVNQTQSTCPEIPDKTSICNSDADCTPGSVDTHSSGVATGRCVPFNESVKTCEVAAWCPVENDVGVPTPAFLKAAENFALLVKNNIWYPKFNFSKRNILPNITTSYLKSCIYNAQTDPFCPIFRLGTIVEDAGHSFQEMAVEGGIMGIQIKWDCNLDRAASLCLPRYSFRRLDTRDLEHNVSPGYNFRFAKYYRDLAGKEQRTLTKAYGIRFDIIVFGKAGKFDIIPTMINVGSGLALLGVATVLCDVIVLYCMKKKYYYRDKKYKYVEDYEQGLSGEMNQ
Test: Two-Electrode Voltage Clamp recording, rat P2X4 T186A mutant in Xenopus oocytes
Assay type: cell-based
Settings: 3 mM ATP, 3 mM CTP (Fig. S3)
Description: To further investigate the functional roles of the residues involved in the base recognition, T189 and R143, we performed an electrophysiological analysis with the rat P2X4, since its electrophysiological properties have been well established. We first assessed the functional role of T189 in zfP2X4 and introduced mutations at the equivalent residue of the rat P2X4 to create three mutants (^rT186A, ^rT186V and ^rT186S; the superscript “r” means rat P2X4). […] Therefore, we examined the ^rWT and the ^rT186S mutant.
The cRNAs encoding zebrafish P2X4 (NP_705939; WT) and rat P2X4 (NP_113782.1; WT and mutants) were transcribed from pGEMHE plasmids, using a mMessage mMachine® T7 ULTRA kit (Ambion, Huntingdon, Cambridgeshire, UK). Xenopus laevis oocytes were prepared, and RNA (100 ng for zebrafish P2X4, and 20 ng for rat P2X4) was injected into the oocytes. The oocytes were incubated at 18 °C in Barth’s solution, containing 88 mM NaCl, 1 mM KCl, 2.4 mM NaHCO3, 10 mM HEPES, 0.33 mM Ca(NO3)2, 0.41 mM CaCl2, and 0.82 mM MgSO4, pH 7.4, supplemented with 50 μg/ml gentamicin, and were used for recording after 2–3 days. […] Oocytes were held at −70 mV with a bath-clamp amplifier (OC-725C, Warner Co., USA), and macroscopic currents were recorded and analyzed using the pClamp 10 software (Molecular Devices, USA)[33][34]. We measured n = 4 for zebrafish P2X4 data and n = 7–9 for rat P2X4 data. […]

| Structure (SMILES) | nucleotide-evoked currents |
| --- | --- |
| Nc1ncnc2c1ncn2[C@@H]1O[C@H](COP(=O)(O)OP(=O)(O)OP(=O)(O)O)[C@@H](O)[C@H]1O [ATP, Adenosine 5-triphosphate] | no ATP- and CTP-evoked currents were detected |
| Nc1ccn([C@@H]2O[C@H](COP(=O)(O)OP(=O)(O)OP(=O)(O)O)[C@@H](O)[C@H]2O)c(=O)n1 [CTP] | no ATP- and CTP-evoked currents were detected |
